Experimental data as given in US12599602B2, “Methods for treating cholestasis” (Mirum Pharmaceuticals, Inc., priority 2019, dated 2026).
Values joined by “and” are separate entries in the source; they are usually repeats but may differ in a detail not shown here. Equal values may be shown once.

Experiments:
[1] = tested on: Children with Progressive Familial Intrahepatic Cholestasis; assay: INDIGO phase 2 open-label efficacy and safety clinical study of maralixibat in PFIC; assay type: in vivo, human; settings: for 7αC4:sBA ratio: high-dose responder
[2] = tested on: Participants with Primary Sclerosing Cholangitis (PSC); assay: CAMEO 14-week single-arm open-label phase 2a study of maralixibat in PSC; assay type: in vivo, human
Experimental: Participants were adults aged 18-80 years with a diagnosis of PSC. PSC diagnosis included a documented history of alkaline phosphatase (ALP) levels greater than 1.5 times above the upper limit of normal, biliary obstruction, and histological findings consistent with PSC diagnosis (if previously biopsied). The study enrolled 27 adults.
Efficacy was assessed by measuring at baseline and throughout the study sBA concentration, serum 7αC4 concentration (a marker of de novo bile acid synthesis), serum aoutotaxin concentration, LDL-C concentration, serum total cholesterol concentration, serum liver enzyme concentrations, and pruritus severity. Pruritus severity was determined by calculating Adult Itch Reported Outcome (ITCHRO) weekly sum scores and average daily scores (mean score over a 7-day period). Participants self-reported the ITCHRO daily on a scale 0-10 (0=no pruritus; 10=most severe pruritus).
Outcomes were assessed in the overall study population and in subgroups of participants (A) with any pruritus at baseline or (B) with an ITCHRO average daily score ≥4 out of 10 at baseline. Efficacy endpoints were based on change from baseline to week 14 or early termination (ET) and were analyzed using paired t-tests or Wilcoxon signed rank tests.

[3] = tested on: Overweight and obese adults; assay: Phase 1 blinded, placebo-controlled, dose-ranging clinical study (NCT02475317), fecal bile acid excretion
Experimental: Participants consumed a low-fiber diet (<10 mg/day) for 2 days before randomization and during the 7-day treatment period. Measurements were taken of fBA, sBA concentration, and serum 7αC4 concentration (which is a biomarker of bile acid synthesis) prior to drug administration and at day 7.

[4] = participants with ITCHRO daily score ≥4 at baseline, one line per Participant A-F
[5] = participants with an ITCHRO daily score ≥4 at baseline

For maralixibat, the multi-parameter response ([1]; all PFIC 1 patients and all patients harboring a truncating ABCB11 mutation) was “not multi-parameter responders”, the “serum ALT, AST, and bilirubin concentrations over time” value ([1]; all low-dose responders, e.g. within 2-6 months of first administration) was “normalized or only mildly elevated concentrations” and the “increase in C4 levels relative to baseline” value ([1]; all low-dose responders, within 13 weeks of first administration) was “at least 2.5 fold”. The “height Z-score” value ([1]; high dose responder, following treatment response on sBA) was “increase in height Z-score”, the “7αC4:sBA ratio” value ([1]; prior to administration of 560 μg/kg/day) was 12 times baseline and the “7αC4:sBA ratio” value ([1]; upon administration of the higher dose (560 μg/kg/day)) was 1770 times baseline. For the same substance, the “cholestasis markers after administration of the higher dose” value ([1]; low-dose responder losing response in long-term extension, 280 μg/kg BID from between 640 and 730 days) was “sBA concentration decreased, severity of pruritus decreased, serum 7αC4 concentration increased, and 7αC4:sBA ratio increased”, the “pruritus after administration of the higher dose” value ([1]; low-dose responder with sBA increase in long-term extension, 280 μg/kg BID from between 820 and 910 days) was “severity of pruritus subsequently decreased” and the “7αC4 concentrations at 48 weeks” value ([1]; low-dose responders) was 14 × baseline. For the same substance, the “growth (height Z-score change relative to baseline)” value ([1]; low-dose responders) was “improved growth relative to baseline”, the “mean change from baseline at week 48 in 7αC4:sBA ratio” value ([1]; low-dose responders) was 1388 times baseline ratio and the multi-parameter responder ([1]; mild PFIC 2 patients, 280 μg/kg QD) was 1 of 7. For the same substance, the responders ([1]; moderate PFIC 2 patients, 280 μg/kg/day by week 48) was 5 of 12, the high-dose responder ([1]; moderate PFIC 2 patients, responsive only after 280 μg/kg twice daily) was 1 of 12 and the “7αC4 concentrations at 48 weeks” value ([1]; non-responders) was 1.8 × baseline. The “growth (height Z-score change relative to baseline)” value ([1]; non-responders) was “did not”, the “mean change from baseline at week 48 in 7αC4:sBA ratio” value ([1]; non-responders) was 1.9 times baseline ratio and the “patients with ≥1.0 pt. reduction in ITCHRO(OBS) score” value ([1]; non-truncating BSEP mutations) was 10/19. The “duration of maintained response” value ([1]; responders) was “for over a year and for up to or beyond 5 years”, the “ItchRO score, n: Improved by ≥1.0 points from baseline” value ([1]; responders (n = 6) by week 48) was 4 and the “ItchRO score, n: Zero (no pruritus)” value ([1]; responders (n = 6) by week 48) was 2. For the same substance, the “sBA levels, n: Normalized (±≤8.5 μmol/L)” value ([1]; responders (n = 6) by week 48) was 4, the “sBA levels, n: Reduced by ≥70% or ≥80% from baseline” value ([1]; responders (n = 6) by week 48) was 2 and the “patients responding at the higher dose” value ([1]; three non-truncating PFIC 2 patients without response at 280 μg/kg/day given 560 μg/kg/day) was “one”. The “ALT, change from baseline to week 48, mean” value ([1]; week 48) was −12 UI/L, the “C4, change from baseline to week 48, mean” value ([1]; week 48) was “+6.0 ng/mL” and the “ItchRO(Obs) score, change from baseline to week 48, mean” value ([1]; week 48) was −1.0. For the same substance, the “PedsQL total score, change from baseline to week 48, mean” value ([1]; week 48) was “+8.2”, the “Total bilirubin, change from baseline to week 48, mean” value ([1]; week 48) was “+0.8 mg/dL” and the “sBA, change from baseline to week 48, mean” value ([1]; week 48) was -32 µmol/L. The tolerability ([2]; adults with PSC, up to 10 mg/day) was “well tolerated”, the “participants with worsening of pruritus by >1 point” value ([2]; baseline to week 14) was “No participants” and the “7αC4, mean increase from baseline” value ([2]; overall) was 11.1 ng/mL. For the same substance, the “Mean levels of 7αC4, increase from baseline” value ([2]; overall) was 130%, the “sBA levels, decrease from baseline” value ([2]; overall) was 38% and the “sBA levels, mean change from baseline” value ([2]; overall) was -14.8 µmol/L. The “Mean conjugated bilirubin levels, increase” value ([2]; overall population) was 0.19 mg/dL, the “serum LCL-C concentration, change” value ([2]; overall population) was -16.3 mg/dL and the “serum autotaxin concentration, change” value ([2]; overall population) was -148 ng/mL. For the same substance, the “total cholesterol, mean change” value ([2]; overall population) was -21.2 mg/dL, the “ITCHRO weekly sum scores, decrease from baseline” value ([2]; overall, baseline to week 14/ET) was 51% and the “Changes in serum total bilirubin, alanine aminotransferase, aspartate aminotransferase, and alkaline phosphatase concentrations” value ([2]; participants in the CAMEO clinical study) was “not statistically significant”. The “conjugated bilirubin levels, change” value ([2]; participants with ITCHRO daily score ≥0 at baseline) was “no significant change”, the “ItchRO average daily score (0-10 scale), Change from baseline to week 14/ET” value [2, 4] was −4.7 and −4.6 and −1.7 and −3.7 (2×) and −9.1 and the “ItchRO average daily score (0-10 scale), Week 14/ET” value [2, 4] was 0 (2×) and 1.3 and 5.1 and 3.1 and 2.3. For the same substance, the autotaxin levels ([2]; participants with an ITCHRO daily score >4 at baseline) was “significant reductions”, the “ITCHRO weekly sum scores, decrease from baseline” value ([2]; participants with an ITCHRO daily score >4 out of 10 at baseline (n=6)) was 70% and the “Mean levels of 7αC4, increase from baseline” value [2, 5] was 107%. For the same substance, the “sBA levels, decrease from baseline” value [2, 5] was 45%, the “total cholesterol, mean change” value [2, 5] was -32.0 mg/dL and the “participants in whom pruritus improved” value ([2]; participants with an ITCHRO score ≥4 at baseline) was “all 6”. For the same substance, the “ITCHRO weekly sum scores, decrease from baseline” value ([2]; participants with any pruritus at baseline (n=18)) was 53%, the “fBA excretion, mean change from baseline” value ([3]; 10 mg dose, 7 days) was 515 µmol and the “fBA excretion, mean change from baseline” value ([3]; 20 mg dose, 7 days) was 532 µmol. The “fBA excretion, mean change from baseline” value ([3]; 50 mg BID, 7 days) was 1251 µmol, the “fBA excretion, mean change from baseline” value ([3]; 100 mg QD, 7 days) was 1144 µmol and the “Mean sBA levels” value ([3]; 7 days) was “not elevated”. For the same substance, the fBA excretion ([3]; across doses) was “increased in a dose-dependent manner” and the “treatment-emergent adverse events occurring in over 10% of participants” value ([3]; all doses) was “headache and diarrhea”.
